As a reminder, the MIC is the smallest concentration in the dilution series that meets the test's criterion for growth inhibition. A lower MIC goes with a more susceptible organism.

Assay [1] deals with E. coli. Nature of the assay: Radial diffusion assay (RDA), low-salt conditions. The format is cell-based. The settings on record: 6 µl per well (3.6 µg protein), not digested with neutrophil elastase. On the procedure: Figure 1 Generation of antimicrobial peptides by degradation of prothrombin and thrombin. (A) Degradation of the proteins was performed at 37°C for the indicated time periods. RDA was performed in low-salt conditions using E. coli as test organism. Each 4 mm-diameter well was loaded with 6 µl of the solution (corresponding to 3.6 µg protein). The bar diagrams indicate the diameter of the zones of clearance obtained (in mm). The inset visualizes the results obtained with prothrombin. C, buffer; NE, neutrophil elastase only. LL-37 (100 µM) was included for comparison. (B) Intact prothrombin (PT) and thrombin (T), and cleavage products from the different incubations with neutrophil elastase (NE, indicated above) were analyzed by SDS-PAGE (16.5% Tris-Tricine gel). The gels are overloaded (12 µg) in order to visualize generation of fragments of low molecular masses. Rightmost two lanes show PT and T proteins at 2 µg.
Figure 2 Activities of peptides derived from prothrombin. (A) Sequence of prothrombin and overlapping peptides (indicated by numbers). In addition to the regular overlapping peptides, peptide regions of high net charge, and/or content of predicted helical regions (Agadir; http://www.embl-heidelberg.de/Services/serrano/agadir/agadir-start.html) were selected. […] (B) Overlapping peptides of prothrombin were analyzed for antimicrobial activities against E. coli. […]

Assay [2] relates to E. coli ATCC 25922. It counts as cell-based. Here is the method: (§1) MIC assay was carried out by a microtiter broth dilution method as previously described in the NCSLA guidelines. Hemolysis, MTT, and LDH assays were performed as previously described (See Text S1).
(§2) MIC assay was carried out by a microtiter broth dilution method as previously described in the NCSLA guidelines (Wiegand, I., Hilpert, K. & Hancock, R.E. Agar and broth dilution methods to determine the minimal inhibitory concentration (MIC) of antimicrobial substances. Nat Protoc 3, 163-175 (2008)). In brief, fresh overnight colonies were suspended to a turbidity of 0.5 units and further diluted in Mueller-Hinton broth (Becton Dickinson). […] Ten µl of each concentration was added to each corresponding well of a 96-well microtiter plate (polypropylene, Costar Corp.) and 90 µl of bacteria (1x10^5) in MH medium added. The plate was incubated at 37 °C for 16-18 h. MIC was taken as the lowest concentration where no visual growth of bacteria was detected.
(§3) Table S2. […] The analysis was performed as described in Wiegand et al. and according to NCSLA guidelines. Additional clinical isolates were obtained from the Department of Bacteriology, Lund University Hospital. P. aeruginosa, E. coli and E. faecalis isolates were initially derived from patients with chronic ulcers, S. aureus from patients with atopic dermatitis. The S. pyogenes strain AP1 was from the WHO Collaborating Center for References and Research on Streptococci (Prague, Czech Republic).

Assay [3] deals with E. coli Clinical isolate 37.4. The format is cell-based. Here is the method:
as §1, §2, §3

The subject of assay [4] is E. coli Clinical isolate 47.1. The format is cell-based. Here is the method: as §1, §2, §3
Assay [5] deals with E. coli Clinical isolate 49.1. It counts as cell-based. On the procedure:
as §1, §2, §3

Assay [6] deals with E. faecalis Clinical isolate 2374. The format is cell-based. Here is the method: as §1, §2, §3
Assay [7] has as its system P. aeruginosa ATCC 27853. The format is cell-based. Here is the method:
as §1, §2, §3

Assay [8] deals with P. aeruginosa Clinical isolate 10.5. It counts as cell-based. On the procedure: as §1, §2, §3
The subject of assay [9] is P. aeruginosa Clinical isolate 13.2. The format is cell-based. Here is the method:
as §1, §2, §3

Assay [10] deals with P. aeruginosa Clinical isolate 15159. The format is cell-based. On the procedure: as §1, §2, §3
The test system of assay [11] is P. aeruginosa Clinical isolate 18488. The format is cell-based. On the procedure: as §1, §2, §3
Assay [12] concerns P. aeruginosa Clinical isolate 23.1. The format is cell-based. Here is the method:
as §1, §2, §3

Assay [13] deals with P. aeruginosa Clinical isolate 27.1. The format is cell-based. Here is the method:
as §1, §2, §3

Assay [14] deals with P. aeruginosa Clinical isolate 51.1. It counts as cell-based. Here is the method: as §1, §2, §3
In assay [15] the test system is P. aeruginosa Clinical isolate 62.1. It counts as cell-based. On the procedure:
as §1, §2, §3

Assay [16] deals with S. aureus ATCC 29213. The format is cell-based. On the procedure:
as §1, §2, §3

Assay [17] relates to S. aureus Clinical isolate 1086. It counts as cell-based. Here is the method: as §1, §2, §3
The test system of assay [18] is S. aureus Clinical isolate 1088. The format is cell-based. Here is the method: as §1, §2, §3
Assay [19] relates to S. aureus Clinical isolate 1090. It counts as cell-based. Here is the method:
as §1, §2, §3

In assay [20] the test system is S. aureus Clinical isolate 13430. It counts as cell-based. Here is the method:
as §1, §2, §3

Assay [21] deals with S. aureus Clinical isolate 14312. The format is cell-based. On the procedure: as §1, §2, §3
Assay [22] has as its system S. aureus Clinical isolate 16065. The format is cell-based. Here is the method: as §1, §2, §3
Assay [23] has as its system S. aureus Clinical isolate 18319. It counts as cell-based. Here is the method: as §1, §2, §3
The subject of assay [24] is S. aureus Clinical isolate 18800. The format is cell-based. Here is the method:
as §1, §2, §3

Assay [25] concerns S. aureus FDA 486. It counts as cell-based. Here is the method:
as §1, §2, §3

For assay [26], the system named is S. pyogenes AP1. The format is cell-based. Here is the method: as §1, §2, §3
Assay [27] relates to E. coli ATCC 25922. Nature of the assay: Viable count assay. It counts as cell-based. As to conditions: E. coli ATCC 25922 2×10^6 cfu/ml, 50 µl, 10 mM Tris pH 7.4 with 5 mM glucose, 37°C 2 h; 3 and 6 µM.
Protocol: 2×10^6 cfu/ml of bacteria were incubated in 50 µl with proteins and peptides at a concentration of 3 and 6 µM, respectively.
E. coli ATCC 25922 bacteria were grown to mid-logarithmic phase in Todd-Hewitt (TH) medium. Bacteria were washed and re-suspended in 10 mM Tris, pH 7.4 containing 5 mM glucose. […] Serial dilutions of the incubation mixtures were plated on TH agar, followed by incubation at 37°C overnight and cfu determination.
Assay [28] can be described thus: Liposome leakage assay (carboxyfluorescein release).
Protocol: (E) Effects of the indicated peptides on liposome leakage. The membrane permeabilizing effect was recorded by measuring fluorescence release of carboxyfluorescein from PA (negatively charged) liposomes. The experiments were performed in 10 mM Tris-buffer, in absence and presence of 0.15 M NaCl. Values represents mean of triplicate samples.
Dry lipid films were prepared by dissolving either dioleoylphosphatidylethanolamine (Avanti Polar Lipids, Alabaster, AL) (70 mol%) and dioleoylphosphatidylglycerol (30 mol%) in chloroform, and then removing the solvent by evaporation under vacuum overnight. Subsequently, buffer solution containing 10 mM Tris, pH 7.4, either with or without additional 150 mM NaCl, was added together with 0.1 M carboxyfluorescein (CF) (Sigma). After hydration, the lipid mixture was subjected to eight freeze-thaw cycles consisting of freezing in liquid nitrogen and heating to 60°C. Unilamellar liposomes with a diameter of about 130 nm (as found with cryo-TEM; results not shown) were generated by multiple extrusions through polycarbonate filters (pore size 100 nm) mounted in a LipoFast miniextruder (Avestin). Untrapped carboxyfluorescein was then removed by filtration through two subsequent Sephadex G-50 columns with the relevant Tris buffer as eluent. […] The CF release was monitored by fluorescence at 520 nm from a liposome dispersion (10 mM lipid in 10 mM Tris pH 7.4). […]

Values after ≈ are worked out from the molar mass of the structure shown. Where a SMILES comes first, the peptide text is derived from it.

Regarding thrombin, the “antimicrobial activity in RDA, intact proteins” value in [1] was “inactive”.
On to `CC[C@H](C)[C@H](N)C(=O)N[C@@H](CC(C)C)C(=O)N[C@@H](CCCNC(=N)N)C(=O)N[C@@H](Cc1c[nH]c2ccccc12)C(=O)N1CCC[C@H]1C(=O)N[C@@H](Cc1c[nH]c2ccccc12)C(=O)N[C@@H](Cc1c[nH]c2ccccc12)C(=O)N1CCC[C@H]1C(=O)N[C@@H](Cc1c[nH]c2ccccc12)C(=O)N[C@@H](CCCNC(=N)N)C(=O)N[C@@H](CCCNC(=N)N)C(=O)N[C@@H](CCCCN)C(N)=O` [Omiganan] (H-ILRWPWWPWRRK-NH2), for which the MIC in [2] was 20 µM (≈ 35.6 µg/mL); in assay [3], 20 µM (≈ 35.6 µg/mL); in assay [4], 20 µM (≈ 35.6 µg/mL); in [5], 10 µM (≈ 17.8 µg/mL); in assay [6], 160 µM (≈ 285 µg/mL); in assay [7], 160 µM (≈ 285 µg/mL). The MIC in assay [8] is 40 µM (≈ 71.2 µg/mL); in assay [9] it was 40 µM (≈ 71.2 µg/mL); in [10], 20 µM (≈ 35.6 µg/mL); in assay [11], 20 µM (≈ 35.6 µg/mL); in [12] it was 40 µM (≈ 71.2 µg/mL); in [13], more than 160 µM. For the same molecule, the minimum inhibitory concentration (MIC) in assay [14] is recorded as 80 µM (≈ 142 µg/mL); in [15], 20 µM (≈ 35.6 µg/mL); in assay [16], 10 µM (≈ 17.8 µg/mL); in [17] it was 10 µM (≈ 17.8 µg/mL); in [18], 20 µM (≈ 35.6 µg/mL); in assay [19] it was 80 µM (≈ 142 µg/mL). For the same molecule, the minimal inhibitory concentration (MIC) in assay [20] is 10 µM (≈ 17.8 µg/mL); in assay [21], 20 µM (≈ 35.6 µg/mL); in assay [22], 5 µM (≈ 8.9 µg/mL); in assay [23], 20 µM (≈ 35.6 µg/mL); in assay [24], 2.5 µM (≈ 4.45 µg/mL); in [25] it was 20 µM (≈ 35.6 µg/mL). In assay [26], this molecule showed a minimum inhibitory concentration (MIC) of 5 µM (≈ 8.9 µg/mL).
VFRLKKWIQKVIDQFGE [VFR17]: the “antibacterial activity in viable count assay” value in assay [27] is “significant antibacterial activity”. Moreover, the “leakage of liposomes (carboxyfluorescein release)” value in [28] (negatively charged liposomes, 10 mM Tris pH 7.4, absence and presence of 0.15 M NaCl, triplicate) is given as “induced leakage of liposomes”. Moreover, in assay [28] (peptide at 1 µM, data not shown), the “time to reach ∼80% of the maximum leakage” value is not above 200 s.

Values taken from PMC2858699, “Proteolysis of Human Thrombin Generates Novel Host Defense Peptides” (PLoS Pathogens, 2010).
